US7763615B2, “Ecteinascidin analogs for use as antitumour agents” (priority 2001, dated 2010)

How the values were obtained:
Assay in all cases: cells
Type in all cases: cell-based
HELA-APL = details: for TGI / CC50: HELA-APL, 48 hours exposure, SRB; for GI50 / CC50: Homo sapiens; for GI50: 48 h; for CC50: read-out: LC50 (the source's name)
Summary of the method: (§1)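 SRB colorimetric read-out (490 nm) after TCA fixation gave GI, TGI and LC values from triplicate wells. Before that, cells (5×10^3/well, RPMI 1640 with 10% FBS, 37 °C, 5% CO2) grew drug-free 18 h and were then continuously exposed 48 h to 10–10^−8 μg/ml compound.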

IGROV-ET = details: Homo sapiens, IGROV-ET, 48 hours exposure, SRB; for GI50 / IC (TGI): 48 h; for CC50: read-out: LC50 (the source's name)
Summary of the method: as §1

HT29 = details: Homo sapiens, HT-29, 48 h, HT29, 48 hours exposure, SRB; for CC50: read-out: LC50 (the source's name)
Summary of the method: as §1

MEL-28 = details: Homo sapiens, MEL-28, 48 hours exposure, SRB; for GI50 / IC (TGI): SK-MEL-28, 48 h; for CC50: SK-MEL-28, read-out: LC50 (the source's name)
Summary of the method: as §1

DU145 = details: Homo sapiens, DU145, 48 hours exposure, SRB; for GI50 / IC (TGI): DU-145, 48 h; for CC50: DU-145, read-out: LC50 (the source's name)
Summary of the method: as §1

LNCAP = details: Homo sapiens, 48 hours exposure, SRB; for GI50 / IC (TGI): LNCaP, 48 h; for CC50: LNCAP, read-out: LC50 (the source's name)
Summary of the method: as §1

K562 = details: Homo sapiens, K562, 48 hours exposure, SRB; for GI50 / IC (TGI): K562, 48 h; for CC50: read-out: LC50 (the source's name)
Summary of the method: as §1

HELA = details: HELA, 48 hours exposure, SRB; for GI50 / CC50: Homo sapiens; for CC50: read-out: LC50 (the source's name)
Summary of the method: as §1

A549 = details: Homo sapiens, A549, 48 h, A549, 48 hours exposure, SRB; for GI50: read-out: GI50; for CC50: read-out: LC50 (the source's name); for IC (TGI): read-out: TGI
Summary of the method: as §1

SK-BR3 = details: Homo sapiens, SK-BR3, 48 hours exposure, SRB; for GI50 / IC (TGI): SK-BR-3, 48 h; for CC50: SK-BR-3, read-out: LC50 (the source's name)
Summary of the method: as §1

LOVO-DOX = details: Homo sapiens, LOVO-DOX, 48 hours exposure, SRB; for GI50 / IC (TGI): 48 h; for CC50: read-out: LC50 (the source's name)
Summary of the method: as §1

IGROV = details: Homo sapiens, 48 hours exposure, SRB; for GI50 / IC (TGI): 48 h; for CC50: read-out: LC50 (the source's name)
Summary of the method: as §1

PANC-1 = details: Homo sapiens, PANC-1, 48 hours exposure, SRB; for GI50 / IC (TGI): PANC-1, 48 h; for CC50: read-out: LC50 (the source's name)
Summary of the method: as §1

LOVO = details: Homo sapiens, 48 hours exposure, SRB; for GI50 / IC (TGI): LoVo, 48 h; for CC50: LOVO, read-out: LC50 (the source's name)
Summary of the method: as §1

`COc1c(C)cc2c(c1O)[C@@H]1C3[C@@H]4SC[C@]5(NCCc6c5[nH]c5ccccc65)C(=O)COC[C@@H](c5c6c(c(C)c(OC(=O)OC(C)(C)C)c54)OCO6)N3[C@@H](C#N)[C@H](C2)N1C` (stereo partly drawn) [Compound 57] was tested, and the TGI (HELA-APL) was 2.03E−07 Molar, the GI50 (HELA-APL) was 61.4 nM and the CC50 (HELA-APL) was 850 nM. For the same compound, the GI50 (IGROV-ET) was 394 nM, the IC (TGI) (IGROV-ET) was 1150 nM and the CC50 (IGROV-ET) was 12200 nM. The GI50 (HT29) was 165 nM, the IC (TGI) (HT29) was 1410 nM and the CC50 (HT29) was 12200 nM. For the same compound, the GI50 (MEL-28) was 64.7 nM, the IC (TGI) (MEL-28) was 209 nM and the CC50 (MEL-28) was 662 nM. It also gave a GI50 (DU145) of 47.7 nM, an IC (TGI) (DU145) of 1840 nM and a CC50 (DU145) of 12200 nM. For the same compound, the GI50 (LNCAP) was 33.3 nM, the IC (TGI) (LNCAP) was 71.7 nM and the CC50 (LNCAP) was 23.2 nM. For the same compound, the GI50 (K562) was 47.7 nM, the IC (TGI) (K562) was 466 nM and the CC50 (K562) was 12200 nM. It also gave a TGI (HELA) of 1.46E−07 Molar, a GI50 (HELA) of 43.7 nM and a CC50 (HELA) of 652 nM. The GI50 (A549) was 103 nM, the CC50 (A549) was 12200 nM and the IC (TGI) (A549) was 607 nM. The GI50 (SK-BR3) was 67.6 nM, the IC (TGI) (SK-BR3) was 313 nM and the CC50 (SK-BR3) was 7990 nM. It also gave a GI50 (LOVO-DOX) of 487 nM, an IC (TGI) (LOVO-DOX) of 6700 nM and a CC50 (LOVO-DOX) of 12200 nM. For the same compound, the GI50 (IGROV) was 71.8 nM, the IC (TGI) (IGROV) was 460 nM and the CC50 (IGROV) was 7430 nM. The GI50 (PANC-1) was 113 nM, the IC (TGI) (PANC-1) was 662 nM and the CC50 (PANC-1) was 12200 nM. It also gave a GI50 (LOVO) of 73 nM, an IC (TGI) (LOVO) of 257 nM and a CC50 (LOVO) of 905 nM.

`C=COC(=O)Oc1c(C)c2c(c3c1[C@H]1SC[C@]4(NCCC5c6ccccc6NC54)C(=O)OC[C@@H]3N3C1[C@H]1c4c(cc(C)c(OC)c4OC(=O)OC=C)C[C@@H]([C@@H]3C#N)N1C)OCO2` (stereo partly drawn) [Compound 68] gave a TGI (HELA-APL) of 6.19E−08 Molar, a GI50 (HELA-APL) of 37 nM and a CC50 (HELA-APL) of 103 nM. For the same compound, the GI50 (IGROV-ET) was 30.8 nM, the IC (TGI) (IGROV-ET) was 68.9 nM and the CC50 (IGROV-ET) was 206 nM. For the same compound, the GI50 (HT29) was 317 nM, the IC (TGI) (HT29) was 95.9 nM and the CC50 (HT29) was 11700 nM. For the same compound, the GI50 (MEL-28) was 7.52 nM, the IC (TGI) (MEL-28) was 22.4 nM and the CC50 (MEL-28) was 67.2 nM. The GI50 (DU145) was 29.9 nM, the IC (TGI) (DU145) was 86.5 nM and the CC50 (DU145) was 10300 nM. The GI50 (LNCAP) was 11.5 nM, the IC (TGI) (LNCAP) was 26.6 nM and the CC50 (LNCAP) was 61.3 nM. It also gave a GI50 (K562) of 20.4 nM, an IC (TGI) (K562) of 44.7 nM and a CC50 (K562) of 97.5 nM. The TGI (HELA) was 6.03E−08 Molar, the GI50 (HELA) was 32.5 nM and the CC50 (HELA) was 112 nM. The GI50 (A549) was 28.3 nM, the CC50 (A549) was 101 nM and the IC (TGI) (A549) was 49.5 nM. It also gave a GI50 (SK-BR3) of 29 nM, an IC (TGI) (SK-BR3) of 60.9 nM and a CC50 (SK-BR3) of 206 nM. It also gave a GI50 (LOVO-DOX) of 112 nM, an IC (TGI) (LOVO-DOX) of 743 nM and a CC50 (LOVO-DOX) of 11700 nM. It also gave a GI50 (IGROV) of 21.7 nM, an IC (TGI) (IGROV) of 61.6 nM and a CC50 (IGROV) of 1090 nM. It also gave a GI50 (PANC-1) of 48.1 nM, an IC (TGI) (PANC-1) of 125 nM and a CC50 (PANC-1) of 11700 nM. For the same compound, the GI50 (LOVO) was 27.1 nM, the IC (TGI) (LOVO) was 49.7 nM and the CC50 (LOVO) was 91.3 nM.
